In publication PMC12472749, “Balsalazide-Derived Heterotriaryls as Sirtuin 5 Inhibitors: A Case Study of a Reversible Covalent Inhibition Strategy” (Molecules, 2025):
Values joined by “and” are separate entries in the source; they are usually repeats but may differ in a detail not shown here. Equal entries are not always repeated.

System: sirtuin 5
Experiment: not given
Conditions: Figure 1, high-throughput screening hits; read-out: IC50 (published sirtuin 5 inhibitor); cited from earlier work
In the case of `O=C1c2c(O)cccc2Cc2cccc(O)c21` [Anthralin, anthralin], the IC50 is listed as 0.1 µM.
In the case of `O=C(O)CCNC(=O)c1ccc(/N=N/c2ccc(O)c(C(=O)O)c2)cc1` [Balsalazide, balsalazide], the IC50 is given as 3.9 µM.
For `C=C1c2cccc(O)c2C(=O)C2=C(O)[C@]3(O)C(=O)C(C(N)=O)=C(O)[C@@H](N(C)C)[C@@H]3[C@@H](O)[C@H]12` [Methacycline, methacycline], the IC50 is listed as 3.6 µM.

Same assay, conditions: Figure 1; read-out: IC50 (published sirtuin 5 inhibitor); cited from earlier work
In the case of `O=c1[nH]c(=S)[nH]c(-c2ccccc2)c1Cc1c(O)ccc2ccccc12` [Cambinol, cambinol], the IC50 is given as 43 µM.
In the case of `O=C1Nc2ccc(I)cc2/C1=C/c1cc(Br)c(O)c(Br)c1` [GW5074], the IC50 is given as 20 µM.
For `N#C/C(=C\c1ccc(-c2ccc(C(=O)O)cc2)o1)C(=O)Nc1ccc(C#N)c(F)c1` [Liu compound 37], the IC50 is listed as 5.6 µM.
In the case of `C=CCN1C(=O)/C(=C\c2ccc(-c3cccc(Cl)c3Cl)o2)C(=O)NC1=S` [Maurer compound 2], the IC50 is listed as 2.3 µM.

Same assay, conditions: published values of the lead structures; read-out: IC50 (published values of lead structures); cited from earlier work
For `O=C(O)CCNC(=O)c1ccc(-c2cc(-c3ccc(O)c(C(=O)O)c3)no2)cc1` [CG_209], the IC50 is given as 12 µM.
For `O=C(O)CCNC(=O)c1ccc(-c2cn(-c3ccc(O)c(C(=O)O)c3)nn2)cc1` [CG_220], the IC50 is listed as 7 µM and 7.4 µM.

Target: T1, hSirt5 (Homo sapiens, UniProt Q9NXA8)
T1 construct: comprised amino acids 37–310 (C-terminal region); His-tag (N); purchased Reaction Biology Corporation (Malvern, PA, USA); host or cells: Escherichia coli
T1 sequence (Q9NXA8 37-310): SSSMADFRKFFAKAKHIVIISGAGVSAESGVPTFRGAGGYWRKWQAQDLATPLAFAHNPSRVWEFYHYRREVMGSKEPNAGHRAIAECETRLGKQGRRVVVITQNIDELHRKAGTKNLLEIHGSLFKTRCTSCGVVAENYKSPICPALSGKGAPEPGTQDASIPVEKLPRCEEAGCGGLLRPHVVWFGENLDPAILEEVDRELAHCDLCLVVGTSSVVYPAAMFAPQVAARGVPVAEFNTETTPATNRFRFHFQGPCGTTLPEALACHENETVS
Experiment: fluorescence-based sirtuin 5 assay (Reaction Biology) with substrate Ac-Lys-succ-AMC and NAD+
Type: biochemical
Conditions: recombinant sirtuin 5 aa 37-310, 50 µM Ac-Lys-succ-AMC, 10-dose 3-fold dilution, mean of three measurements; read-out: IC50 (hSirt5) [µM] ± SD
Procedure: The synthesized cyclic boronate, cyanomethyl and formylmethyl derivatives of CG_209 and CG_220 were tested for their inhibitory effects against sirtuin 5 using a fluorescence-based assay utilizing a 7-amino-4-methyl coumarin-based succinylated lysine as its substrate. The IC50 values of these compounds were calculated as a mean of three measurements (Table 2). […] Significant loss in the potency of the boronates 51–54 could be observed compared to their lead structures CG_209 and CG_220.
The inhibitory activities of the synthesized target compounds were determined by Reaction Biology Corporation (Malvern, PA, USA) using a fluorescence-based assay. The sirtuin 5 enzyme utilized in this assay was produced in-house by Reaction Biology. The enzyme construct (accession number: NM_012241) comprised amino acids 37–310 (C-terminal region), carried an N-terminal His-tag and was expressed in Escherichia coli. The recombinant protein was purified to >95% purity, as confirmed by SDS-PAGE, and supplied in a solution containing 50 mM Tris-HCl (pH 8.0), 137 mM NaCl, 2.7 mM KCl, 1 mM MgCl2, 1 mg/mL BSA, and 1% DMSO with a protein concentration of 19 nM. Test compounds were prepared at a concentration of 10 mM in DMSO and incubated with 5 µL sirtuin 5 in the assay buffer per well at 30 °C for 10 min in a concentration range between 5 nM and 0.1 mM. 5 µL assay buffer without sirtuin 5 were used for control wells. The deacylation reaction was initiated by the addition of 5 µL substrate mixture comprising 50 µM fluorogenic substrate Ac-Lys-succ-AMC and the co-factor NAD^+. After a 2 h incubation at 30 °C, the reaction was terminated by adding 10 µL protease-based developer with 4 mM nicotinamide, which cleaves 7-amino-4-methylcoumarin to yield a fluorescent signal. Fluorescence was measured after an additional 1 h incubation at 30 °C, with excitation/emission wavelengths of 360/460 nm with EnVision® Plate Reader (Revvity, Waltham, MA, USA). To standardize results, a no-inhibitor control representing 100% enzyme activity was included in all assays. IC50 values for sirtuin 5 inhibition were determined in triplicate using a 10-dose, 3-fold serial dilution series. For each replicate, individual IC50 values were calculated by fitting sigmoidal dose–response curves using Prism 8.0.2 software (GraphPad Software, Boston, MA, USA). The final IC50 values are reported as the mean ± standard deviation of the triplicate measurements.
`O=C(O)CCNC(=O)c1ccc(-c2cc(-c3ccc(O)c(C(=O)O)c3)no2)cc1` [CG_209] gave an IC50 of 11 ± 1 µM.
With `O=C(O)CCNC(=O)c1ccc(-c2cn(-c3ccc(O)c(C(=O)O)c3)nn2)cc1` [CG_220] the IC50 was 9 ± 2 µM.
Work on `N#CC[C@H](CC(=O)O)NC(=O)c1ccc(-c2cc(-c3ccc(O)c(C(=O)O)c3)no2)cc1` [Compound 47, (R)-5-(5-(4-((1-Carboxy-3-cyanopropan-2-yl)carbamoyl)phenyl)isoxazol-3-yl)-2-hydroxybenzoic acid] yielded an IC50 of 97 ± 22 µM.
`N#CC[C@@H](CC(=O)O)NC(=O)c1ccc(-c2cc(-c3ccc(O)c(C(=O)O)c3)no2)cc1` [Compound 48, (S)-5-(5-(4-((1-Carboxy-3-cyanopropan-2-yl)carbamoyl)phenyl)isoxazol-3-yl)-2-hydroxybenzoic acid] gave an IC50 of 65 ± 15 µM.
`N#CC[C@H](CC(=O)O)NC(=O)c1ccc(-c2cn(-c3ccc(O)c(C(=O)O)c3)nn2)cc1` [Compound 49, (R)-5-(4-(4-((1-Carboxy-3-cyanopropan-2-yl)carbamoyl)phenyl)-1H-1,2,3-triazol-1-yl)-2-hydroxybenzoic acid] gave an IC50 of 35 ± 6 µM.
Work on `N#CC[C@@H](CC(=O)O)NC(=O)c1ccc(-c2cn(-c3ccc(O)c(C(=O)O)c3)nn2)cc1` [Compound 50, (S)-5-(4-(4-((1-Carboxy-3-cyanopropan-2-yl)carbamoyl)phenyl)-1H-1,2,3-triazol-1-yl)-2-hydroxybenzoic acid] yielded an IC50 of 27 ± 9 µM.
Work on `CC1(C)OC(=O)c2cc(-c3cc(-c4ccc(C5=N[C@@H](CC(=O)O)CB(O)O5)cc4)on3)ccc2O1` [Compound 51, (R)-2-(6-(4-(3-(2,2-Dimethyl-4-oxo-4H-benzo[d][1,3]dioxin-6-yl)isoxazol-5-yl)phenyl)-2-hydroxy-3,4-dihydro-2H-1,5,2-oxazaborinin-4-yl)acetic acid] yielded an IC50 of 203 ± 50 µM.
`CC1(C)OC(=O)c2cc(-c3cc(-c4ccc(C5=N[C@H](CC(=O)O)CB(O)O5)cc4)on3)ccc2O1` [Compound 52, (S)-2-(6-(4-(3-(2,2-Dimethyl-4-oxo-4H-benzo[d][1,3]dioxin-6-yl)isoxazol-5-yl)phenyl)-2-hydroxy-3,4-dihydro-2H-1,5,2-oxazaborinin-4-yl)acetic acid] showed an IC50 of 139 ± 18 µM.
`CC1(C)OC(=O)c2cc(-n3cc(-c4ccc(C5=N[C@@H](CC(=O)O)CB(O)O5)cc4)nn3)ccc2O1` [Compound 53, (R)-2-(6-(4-(1-(2,2-Dimethyl-4-oxo-4H-benzo[d][1,3]dioxin-6-yl)-1H-1,2,3-triazol-4-yl)phenyl)-2-hydroxy-3,4-dihydro-2H-1,5,2-oxazaborinin-4-yl)acetic acid] showed an IC50 of 137 ± 63 µM.
In the case of `CC1(C)OC(=O)c2cc(-n3cc(-c4ccc(C5=N[C@H](CC(=O)O)CB(O)O5)cc4)nn3)ccc2O1` [Compound 54, (S)-2-(6-(4-(1-(2,2-Dimethyl-4-oxo-4H-benzo[d][1,3]dioxin-6-yl)-1H-1,2,3-triazol-4-yl)phenyl)-2-hydroxy-3,4-dihydro-2H-1,5,2-oxazaborinin-4-yl)acetic acid], the IC50 is reported as 61 ± 9 µM.
`O=CCC(CC(=O)O)NC(=O)c1ccc(-c2cc(-c3ccc(O)c(C(=O)O)c3)no2)cc1` (stereo not drawn) [Compound 61, 5-(5-(4-((1-Carboxy-4-oxobutan-2-yl)carbamoyl)phenyl)isoxazol-3-yl)-2-hydroxybenzoic acid] gave an IC50 of 82 ± 3 µM.
With `O=CCC(CC(=O)O)NC(=O)c1ccc(-c2cn(-c3ccc(O)c(C(=O)O)c3)nn2)cc1` (stereo not drawn) [Compound 64, 5-(4-(4-((1-Carboxy-4-oxobutan-2-yl)carbamoyl)phenyl)-1H-1,2,3-triazol-1-yl)-2-hydroxybenzoic acid] the IC50 was 60 ± 15 µM.
